Reference: ChEMBL document CHEMBL2157960, “Novel cyanocombretastatins as potent tubulin polymerisation inhibitors” (Bioorg Med Chem Lett, 2012)

Experiments:
K562 = experiment: Antiproliferative activity against human K562 cells by MTT assay; assay type: functional, cell-based
MCF7 = experiment: Cytotoxicity against human MCF7 cells; assay type: functional, cell-based
MDA-MB-468 = experiment: Antiproliferative activity against human MDA-MB-468 cells expressing NQO1 by MTT assay; assay type: functional, cell-based
Tubulin = Tubulin (Sus scrofa, UniProt P02554+P02550); experiment: Inhibition of pig tubulin polymerization by spectrophotometry; assay type: protein assay

Compound | IC50 (K562) [nM] | IC50 (MCF7) [nM] | IC50 (MDA-MB-468) [nM] | IC50 (Tubulin) [nM]
COc1ccc(/C=C\c2cc(OC)c(OC)c(OC)c2)cc1F | 7 | – | – | –
COc1ccc(/C=C/c2cc(OC)c(OC)c(OC)c2)cc1B(O)O | – | 470000 | – | –
COc1ccc(/C=C/c2cc(OC)c(OC)c(OC)c2)cc1F | > 2500 | – | – | –
COc1ccc(/C=C/c2cc(OC)c(OC)c(OC)c2)cc1Br | 7830 | – | – | –
COc1ccc(/C=C(/C#N)c2cc(OC)c(OC)c(OC)c2)cc1F | 6.7 | – | 4.1 | 4200
COc1ccc(/C=C(\C#N)c2cc(OC)c(OC)c(OC)c2)cc1F | 18.7 | – | 20.3 | 18500
COc1ccc(/C=C(\C#N)c2cc(OC)c(OC)c(OC)c2)cc1Br | 49.5 | – | 70.6 | 35600
COc1ccc(/C=C(\C#N)c2cc(OC)c(OC)c(OC)c2)cc1I | 42.6 | – | 85.3 | 43800
C#Cc1cc(/C=C(\C#N)c2cc(OC)c(OC)c(OC)c2)ccc1OC | 30.2 | – | 46.5 | 25300
COc1ccc(/C=C(\C#N)c2cc(OC)c(OC)c(OC)c2)cc1B(O)O | 20.4 | – | 35.7 | 17400
COc1ccc(/C=C\c2cc(OC)c(OC)c(OC)c2)cc1O [COMBRETASTATIN A4] | 2.3 | – | 3.1 | –
